Results on 6 compounds are retold here after patent US11753635B2, “Methods and systems and related compositions for mixtures separation with a solid matrix” (CALIFORNIA INSTITUTE OF TECHNOLOGY, priority 2017, dated 2023).

Series [1] deals with LAMP reaction on lambda phage DNA. The series is described as follows: LAMP with contaminants (Example 4). Type of series: biochemical. The note with it: 10% additive (1 uL in 10 uL reaction). On the procedure: LAMP reactions were carried out using standard conditions provided by NEB with slight modifications. LAMP solutions were provided by NEB unless otherwise noted. The final solution contained 1× Isothermal Amplification Buffer I, 1.4 mM dNTPs, 7 mM MgSO4 (5 mM+2 mM in buffer), WarmStart Bst 2.0 (320 U/mL), 1 mg/mL BSA (Ambion) Lambda phage LAMP primers (standard desalted, Integrated DNA Technologies) at concentrations 0.2 uM F3/B3, 1.6 uM FIP/BIP, 0.4 uM LoopF/B as previously developed by Goto in 2009 were used. Reactions were made to a total of 10 uL comprised of 5 uL concentrated reaction mix and 5 uL of purified nucleic acids from the various extraction conditions (NF—H2O for negative control). For positive controls, 5 uL purified lambda phage DNA ([…]) was added to each reaction and for 5 uL template from nucleic acid extractions or each sample was tested in triplicate (n=3) and solutions were made to either 9 uL or 10 uL. The LAMP reaction was carried out by heating to 68° C. and all of the wells were tracked in real-time (image every 35 s) on the BioRad CFX-96 system. Samples were deemed negative if they […] over 30 min. Cycle times were determined automatically using the BioRad analysis software and converted to time-to-positive in minutes. […]

For series [2] the following is noted: cited from earlier work.

For the compound `CCO` [ethanol, reference compound], the “Inhibition of the LAMP reaction” value in series [1] (no amplification for at least 30 min) is “completely inhibits the LAMP reaction”.
With `CCCCCO` [1 pentanol], the “Water solubility at 25° C.” value in series [2] is recorded as 2.2 g/100 mL.
As for `CCCCCCCCO` [1-octanol], the “Delay in LAMP (time-to-positive)” value in series [1] (versus 10 uL positive control) was found to be 1.4 min. Further, the “Water solubility at 25° C.” value in series [2] was 0.03 g/100 mL.
Regarding `CCCCC(O)CCCC` [5-nonanol], in series [2], the “Water solubility at 25° C.” value was 0.046 g/100 mL.
As for `CCCCCCCCCCCCCCCCCCCCO` [Arachidyl Alcohol (20 ol), Arachidyl Alcohol], in series [2], the “Water solubility at 25° C.” value is listed as 0.151 ug/100 mL.
`CCCCCCCCCCCCCO` [1 tridecanol]: the “Water solubility at 25° C. (in words)” value in series [2] (explained as a solubility of 1 g per 10 L of solvent) is reported as “practically insoluble (a”.
